The test system of the test is influenza virus A/PR/8/34(H1N1). Briefly: ELISA inhibition of influenza virus binding to immobilised GM3. Particulars: 1 nmol GM3 per well, virus suspension 32 HAU, pre-incubated at 4° C. for two hours.

With `CC(=O)N[C@H]1[C@H]([C@H](O)[C@H](O)CO)O[C@@](O[C@H]2[C@@H](O)[C@@H](CO)O[C@@H](O[C@H]3[C@H](O)[C@@H](O)C(O)O[C@@H]3CO)[C@@H]2O)(C(=O)O)C[C@@H]1O` (stereo partly shown) [Sialyl lactose], the IC50 per molecule amounted to 1.5e-07 mol.

(Values after patent US6358919B1 (priority 1997, dated 2002).)
